Test results as given in patent US20170348375A1, “DISLODGEMENT AND RELEASE OF HSC FROM THE BONE MARROW STEM CELL NICHE USING ALPHA9 INTEGRIN ANTAGONISTS” (COMMONWEALTH SCIENTIFIC AND INDUSTRIAL RESEARCH ORGANISATION, priority 2014, published 2017).
Read-outs that look alike come from different tables or passages of the source.

How the values were obtained:
α4β1 integrin = molecular target: T1, α4β1 integrin (Homo sapiens, UniProt P05556+P13612); test: On-rate and off-rate kinetics of R-BC154 binding to α4β1 LN18 cells; details: for kobs / kon / koff: α4β1 cells; for kobs: 50 nM, 37° C., fast phase; for kon: (kobs − koff)/50 nM
T1 construct: expressed in transfected cells; host or cells: human glioblastoma LN18 (ATCC CRL-2610), retrovirally transduced
Method: (§1) Mean channel fluorescence was plotted against time and the data was fitted to either a one-phase or two-phase exponential decay function using GraphPad Prism 6. The off-rate, koff was extrapolated from the curves.
(§2) Eppendorf vials containing α4β1 or α9β1 LN18 cells (0.5×10^6 cells) in 50 μl TBS-2% FBS containing either 1 mM CaCl2—MgCl2 or 1 mM MnCl2 were pre-activated in a heating block for 20 min at 37° C. […] The cells were washed once TBS-2% FBS (with relevant cations), pelleted by centrifugation and resuspended (200 μl) in the relevant binding buffer for flow cytometric analysis. Mean channel fluorescence was plotted against time and the data was fitted to either a one-phase or two phase association function using GraphPad Prism 6. The observed on-rate, kobs was extrapolated from the curves and kon was calculated using […]

[1] = tested on: human cord blood mononuclear cells (MNC); test: In vitro R-BC154 binding to human cord blood mononuclear cells; type: cell-based
Method: Mononuclear cells (MNC) were isolated from cord blood as previously described in Nilsson, S. K. et al Blood 106, 1232-1239, (2005) and Grassinger, J. et al. Blood 114, 49-59, (2009). MNCs were incubated with a lineage antibody cocktail containing mouse anti-human CD3, CD11b, CD14, CD16, CD20, CD24, and CD235a (BD) and then treated with two rounds of Dynal sheep anti-mouse IgG beads (Invitrogen, Carlsbad, Calif.) at a ratio of 2 beads per cell for 5 min and then 10 min at 4° C. with constant rotation. Enriched MNC were stained with CD34-fluorescein isothiocyanate (FITC) CD34^+ cells purified by FACS.
(§3) Cells were washed with cold PBS (2% F BS) and then immunolabelled as described in “Antibody Cocktails” prior to flow cytometric analysis.

α9β1 integrin = molecular target: T2, α9β1 integrin (Homo sapiens, UniProt P05556+Q13797); test: On-rate and off-rate kinetics of R-BC154 binding to α9β1 LN18 cells; details: for kobs: 50 nM, 37° C., fast phase; for kon: (kobs − koff)/50 nM
T2 construct: expressed in transfected cells; host or cells: human glioblastoma LN18 (ATCC CRL-2610), retrovirally transduced; α4 silenced with pSM2c-shITGA4
Method: as §1, §2

[2] = tested on: control LN18 cells (LN18 SiA4); test: Saturation binding to control LN18 cells (no integrins); design: species or system human; details: 1 mM Ca2+/Mg2+
Method: (§4) Stable LN18 cells ((ATCC number: CRL-2610) over-expressing integrin α4β1 (LN18 α4β1) or α9β1 (LN18 α9β1)) were generated by retroviral transduction using the pMSCV-hITGA4-IRES-hITGB1 and pMSCV-hITGA9-IRES-hITGB1 vectors as previously described in J Grassinger, et al Blood, 2009, 114, 49-59 and were maintained in DMEM supplemented with 2 mM […] in 10% FBS. Transduced cells were selected by two rounds of FACS using 2.5 μg ml^−1 PE-Cy5-conjugated mouse-anti-human α4 antibody (BD Bioscience) or 20 μg ml^−1 of mouse-anti-human α9β1 antibody (Millipore) in PBS-2% FBS, followed by 0.5 μg ml^−1 of PE-conjugated goat-anti-mouse IgG (BD Bio-science). Silencing of α4 expression in LN18 and LN18 α9β1 cells was performed as described above using pSM2c-shITGA4 (Open Biosystems). α4-silenced LN18 cells (control cell line; LN18 SiA4) and LN18 α9β1 (LN18 α9β1SiA4) were negatively selected for α4 expression using FACS.
(§5) The cells were incubated at 37° C. for 60 min, washed once with TBS-2% FBS, dry pelleted and resuspended in the relevant binding buffer for flow cytometric analysis. Mean channel fluorescence was plotted against concentration and fitted to a one-site saturation ligand binding curve using GraphPad Prism 6. The dissociation constant, Kd was determined from the curves.

human integrin α9β1 = molecular target: T3, human integrin α9β1 (Homo sapiens, UniProt P05556+Q13797); test: Saturation binding to α9β1 over-expressing LN18 cells (flow cytometry); details: for Kd: α9β1 LN18 cells, read-out: Kd (dissociation constant), α9β1
T3 construct: expressed in transfected cells; host or cells: human glioblastoma LN18 (ATCC CRL-2610), retrovirally transduced; α4 silenced with pSM2c-shITGA4
Method: as §4, §5

[3] = tested on: central and endosteal BM LSK and LSKSLAM cells; test: In vitro R-BC154 binding to murine bone marrow cells; type: cell-based, mouse
Method: For lineage analysis, cells were stained separately for T-cells using anti-CD3, B-cells using anti-B220, macrophages using anti-Mac-1 and granulocytes using anti-Gr-1. Alternatively, lineage analysis was also performed using a cocktail containing anti-CD3/B220 (PB conjugated) and anti-B220/Gr1/Mac-1 (AF647 conjugated), whereby B220^+ cells were identified as +/+ cells, CD^3+ cells are +/− and Gr1/Mac-1^+ cells are −/+ populations. For analysis of human WBC from cord blood MNCs or BM and PB from humanised NSG mice, cells were immunolabelled with a lineage cocktail containing anti-huCD3/CD14/CD15 (all AF488 conjugated), anti-CD14/CD15/CD19/CD20 (all AF647 conjugated), anti-huCD45-PB, anti-muCD45-BV510 and anti-huCD34-PECy7. A full list of conjugated antibodies used is detailed in Table 1 and 2.
Populations of endosteal and central murine bone marrow cells were isolated as previously described in J. Grassinger, et al Cytokine, 2012, 58, 218-225 and D. N. Haylock et al Stem Cells, 2007, 25, 1062-1069. Briefly, one femur, tibia and iliac bone were excised and cleaned of muscle. After removing the epi- and metaphyseal regions, bones were flushed with PBS-2% FBS to obtain central bone marrow cells. Flushed long bones and epi- and metaphyseal fragments were pooled and crushed using a mortar and pestle. Bone fragments were digested with Collagenase I (3 mg/ml) and Dispase II (4 mg/ml) at 37° C. in an orbital shaker at 750 rpm. After 5 min, bone fragments were washed once with PBS and once with PBS 2% FBS to collect the endosteal bone marrow cells. Peripheral blood was collected by retro-orbital puncture and red blood cells were lysed using NH4Cl lysis buffer for 5 min at room temperature. Isolated cell populations were washed with PBS 2% FBS and then stained for flow cytometry as described in Antibody Cocktails above.
as §3

T3 sequence (Q13797 30-1035): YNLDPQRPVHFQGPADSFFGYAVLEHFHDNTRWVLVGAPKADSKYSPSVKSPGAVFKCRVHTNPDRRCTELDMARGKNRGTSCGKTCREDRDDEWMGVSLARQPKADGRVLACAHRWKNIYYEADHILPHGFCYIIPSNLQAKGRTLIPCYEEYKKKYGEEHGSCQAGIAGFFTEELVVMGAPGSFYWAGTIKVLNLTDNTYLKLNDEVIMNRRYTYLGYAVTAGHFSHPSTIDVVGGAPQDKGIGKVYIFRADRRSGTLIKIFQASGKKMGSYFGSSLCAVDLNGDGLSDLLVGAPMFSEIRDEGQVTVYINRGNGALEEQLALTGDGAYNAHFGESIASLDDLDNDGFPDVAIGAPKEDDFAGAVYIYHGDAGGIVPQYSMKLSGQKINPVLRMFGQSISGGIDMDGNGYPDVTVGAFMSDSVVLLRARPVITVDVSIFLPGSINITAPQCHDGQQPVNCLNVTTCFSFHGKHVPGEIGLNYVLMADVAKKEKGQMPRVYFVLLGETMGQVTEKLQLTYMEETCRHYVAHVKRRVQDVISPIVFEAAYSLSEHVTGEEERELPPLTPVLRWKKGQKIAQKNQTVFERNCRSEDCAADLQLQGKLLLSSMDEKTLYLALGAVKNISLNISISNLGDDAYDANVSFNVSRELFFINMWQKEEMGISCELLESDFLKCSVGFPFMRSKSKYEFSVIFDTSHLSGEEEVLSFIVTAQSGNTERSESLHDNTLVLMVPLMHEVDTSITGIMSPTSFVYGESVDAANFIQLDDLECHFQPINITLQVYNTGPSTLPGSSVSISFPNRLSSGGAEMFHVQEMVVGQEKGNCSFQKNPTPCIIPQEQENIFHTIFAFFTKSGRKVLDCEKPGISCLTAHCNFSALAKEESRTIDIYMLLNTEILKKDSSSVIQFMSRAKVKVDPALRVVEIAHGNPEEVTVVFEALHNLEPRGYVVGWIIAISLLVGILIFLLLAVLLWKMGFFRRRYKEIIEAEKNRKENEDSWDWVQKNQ
T3 sequence (P05556 21-798): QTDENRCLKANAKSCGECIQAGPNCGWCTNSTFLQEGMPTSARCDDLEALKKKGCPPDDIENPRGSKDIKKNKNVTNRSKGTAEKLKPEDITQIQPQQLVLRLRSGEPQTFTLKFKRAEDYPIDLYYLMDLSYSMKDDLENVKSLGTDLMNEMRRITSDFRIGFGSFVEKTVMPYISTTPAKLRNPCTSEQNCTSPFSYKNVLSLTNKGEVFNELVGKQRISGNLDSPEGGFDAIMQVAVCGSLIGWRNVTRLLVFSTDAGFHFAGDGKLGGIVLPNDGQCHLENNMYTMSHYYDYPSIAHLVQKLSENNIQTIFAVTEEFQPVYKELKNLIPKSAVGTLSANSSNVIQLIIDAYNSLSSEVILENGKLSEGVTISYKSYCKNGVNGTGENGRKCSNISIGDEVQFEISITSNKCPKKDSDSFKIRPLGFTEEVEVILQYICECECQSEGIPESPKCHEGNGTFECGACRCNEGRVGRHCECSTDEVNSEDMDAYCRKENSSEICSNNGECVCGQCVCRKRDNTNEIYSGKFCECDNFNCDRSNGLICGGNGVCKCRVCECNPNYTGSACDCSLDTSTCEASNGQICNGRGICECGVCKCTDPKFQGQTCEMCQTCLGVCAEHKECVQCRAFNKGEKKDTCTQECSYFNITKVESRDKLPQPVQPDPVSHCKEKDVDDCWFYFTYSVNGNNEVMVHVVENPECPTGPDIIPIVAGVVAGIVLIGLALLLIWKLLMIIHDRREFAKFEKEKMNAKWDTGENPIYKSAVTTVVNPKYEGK
T2 sequence (Q13797 30-1035): as the sequence (Q13797 30-1035) above
T2 sequence (P05556 21-798): as the sequence (P05556 21-798) above
T1 sequence (P13612 34-1032): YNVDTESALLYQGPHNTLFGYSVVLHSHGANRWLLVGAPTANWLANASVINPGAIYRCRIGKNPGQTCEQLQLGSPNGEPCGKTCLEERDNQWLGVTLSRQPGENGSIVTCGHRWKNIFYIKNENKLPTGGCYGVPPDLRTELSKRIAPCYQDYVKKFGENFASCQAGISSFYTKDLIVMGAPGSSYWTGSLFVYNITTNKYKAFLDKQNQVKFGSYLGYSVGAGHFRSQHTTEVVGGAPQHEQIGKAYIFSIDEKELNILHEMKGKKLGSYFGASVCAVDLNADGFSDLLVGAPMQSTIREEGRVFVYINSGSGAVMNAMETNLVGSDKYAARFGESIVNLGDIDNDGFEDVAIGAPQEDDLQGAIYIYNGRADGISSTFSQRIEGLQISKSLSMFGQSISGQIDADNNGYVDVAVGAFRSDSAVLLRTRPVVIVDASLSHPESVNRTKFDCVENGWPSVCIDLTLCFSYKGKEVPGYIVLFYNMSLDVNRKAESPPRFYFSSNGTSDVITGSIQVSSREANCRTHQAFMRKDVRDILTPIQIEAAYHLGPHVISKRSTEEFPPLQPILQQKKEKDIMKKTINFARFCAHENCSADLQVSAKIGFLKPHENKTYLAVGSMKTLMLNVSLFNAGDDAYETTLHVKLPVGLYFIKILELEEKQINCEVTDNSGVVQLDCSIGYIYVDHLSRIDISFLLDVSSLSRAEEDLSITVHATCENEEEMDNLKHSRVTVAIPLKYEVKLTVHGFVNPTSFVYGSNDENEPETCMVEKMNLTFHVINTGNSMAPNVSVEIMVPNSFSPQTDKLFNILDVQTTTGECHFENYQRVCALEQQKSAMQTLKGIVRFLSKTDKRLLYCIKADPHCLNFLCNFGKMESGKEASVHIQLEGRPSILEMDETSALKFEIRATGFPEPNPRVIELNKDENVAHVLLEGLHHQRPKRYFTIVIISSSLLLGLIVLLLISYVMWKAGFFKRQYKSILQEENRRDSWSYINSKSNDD
T1 sequence (P05556 21-798): as the sequence (P05556 21-798) above

SMILES: CCN(CC)c1ccc2c(-c3ccc(S(=O)(=O)NCc4cn(C5CC(C(=O)NC(Cc6ccc(OC(=O)N7CCCC7)cc6)C(=O)O)N(S(=O)(=O)c6ccccc6)C5)nn4)cc3S(=O)(=O)[O-])c3ccc(=[N+](CC)CC)cc-3oc2c1 (stereo not drawn) [R-BC154]
- R-BC154 still bound after 60 min (α4β1 integrin; α4β1, Mn2+, dissociation experiment): greater than 60%
- kobs (α4β1 integrin; 1 mM Ca2+/Mg2+): 5.426 min⁻¹
- kon (α4β1 integrin; 1 mM Ca2+/Mg2+): 1.57e+06 M⁻¹ s⁻¹
- koff (α4β1 integrin; 1 mM Ca2+/Mg2+, fast phase of two-phase dissociation curve): 0.012 s⁻¹
- koff (α4β1 integrin; 1 mM Mn2+): 0.000233 s⁻¹
- kobs (α4β1 integrin; 1 mM Mn2+): 1.891 min⁻¹
- kon (α4β1 integrin; 1 mM Mn2+): 633000 M⁻¹ s⁻¹
- binding to human cord blood MNC ([1]; 1 mM Ca2+/Mg2+ vs no cations): Divalent cation and dose dependent binding
- binding to CD34+CD38− cells versus other MNC populations ([1]; activating conditions): greater binding was observed on stem cell enriched CD34^+CD38^− cells compared to lineage-committed CD34^− cells
- off-rates for α9β1 compared to α4β1 (α9β1 integrin; Example 2, FIG. 5c): significantly reduced off-rates
- R-BC154 still bound after 60 min (α9β1 integrin; α9β1, Mn2+, dissociation experiment): greater than 60%
- koff (α9β1 integrin; α9β1 cells, 1 mM Ca2+/Mg2+): 0.0009 s⁻¹
- kobs (α9β1 integrin; α9β1 cells, 1 mM Ca2+/Mg2+): 3.117 min⁻¹
- kon (α9β1 integrin; α9β1 cells, 1 mM Ca2+/Mg2+): 1.02e+06 M⁻¹ s⁻¹
- kobs (α9β1 integrin; α9β1 cells, 1 mM Mn2+): 2.035 min⁻¹
- kon (α9β1 integrin; α9β1 cells, 1 mM Mn2+): ~670000 M⁻¹ s⁻¹
- binding to control cell line lacking integrin expression [2]: Virtually no binding
- Kd (human integrin α9β1; 1 mM Ca2+/Mg2+): 12.7 nM
- Kd (human integrin α9β1; 1 mM Mn2+): 14.4 nM
- greater affinity for α9β1 than α4β1 (human integrin α9β1; Ca2+/Mg2+ conditions): 3 fold
- reduction in binding affinity to α9β1 compared to compound 22 (human integrin α9β1; Ca2+/Mg2+ conditions): 1.5 fold
- integrin binding in the absence of cations (human integrin α9β1; TBS buffer only, LN18 α9β1 cells (FIG. 4)): no integrin binding was observed
- binding to central versus endosteal LSK and LSKSLAM ([3]; 1 mM Ca2+/Mg2+): greater binding to central LSK and LSKSLAM
- binding to HSC and progenitors on co-treatment with EDTA ([3]; 10 mM EDTA (deactivating)): completely abolished activity
- binding to α4−/−/α9−/− LSK and LSKSLAM cells ([3]; BM cells of α4flox/flox α9flox/flox vav-cre mice): essentially absent
- binding to lineage committed lymphoid and myeloid progeny relative to LSKSLAM and LSK ([3]; exogenous activation, central and endosteal BM): significantly lower
- binding to LSK cells in the absence of activating cations and EDTA ([3]; no cations, no EDTA): binding to endosteal LSK cells was still evident but not to central LSK
